Measurements: patent US20060270631A1, “Methods for the treatment and prevention of angiogenic diseases” (priority 2005, published 2006)
“And” between values parts separate entries of the source, which are not always exact repeats. Identical values can stand only once.

Columns and labels:
endogenous SK = assay: Cellular SK activity in bovine retinal endothelial cells; format: cell-based; conditions: 4 hours
Protocol: FIG. 3. Inhibition of cellular SK activity in RECs. Bovine retinal endothelial cells were incubated with 20 μM dimethylsphingosine (DMS) or 25 μg/mL Compound I, Compound II or Compound V (approximately 80 μM for each compound) for 4 hours before the addition of 0.4 μCi of [^3H]sphingosine. After 15 minutes, cells were lysed and extracted with chloroform: methanol. The total amounts of [^3H]sphingosine in the organic phase and [^3H]S1P in the aqueous phase were then determined. Values represent the mean±SD of duplicate samples in a typical experiment.
Cellular S1P formation assay. Cells were grown to confluency in 24-well tissue culture plates and serum-starved for 24 hours as described above. Cells were then treated with 1% DMSO (as the drug vehicle), 20 μM dimethylsphingosine, or the indicated concentration of an SK inhibitor for 4 hours. The cells were then incubated with [^3H]sphingosine for 15 minutes, and the formation of [^3H]S1P was measured as previously described (French et al., Cancer Res 63: 5962 (2003)). In some assays, the cells were serum-starved for 24 hours and then treated with VEGF (50 ng/mL) alone or in the presence of an SK inhibitor for an additional 12 hours. [^3 H]Sphingosine was then added for 15 minutes, and its conversion to [^3H]S1P was measured as indicated above.
A cell-based assay in which the phosphorylation of exogenously added [^3H]sphingosine to [^3H]S1P by endogenous SK can be quantified (French et al., Cancer Res 63: 5962 (2003)) was used to evaluate the effects of test compounds on the activity of SK in intact cells. In this assay, cells are incubated with [^3 H]sphingosine for an appropriate period of time, and then [^3H]sphingosine and [^3H]S1P (formed by endogenous SK activity) are separated by extraction and levels of both species are determined by scintillation counting. We have used a number of cell lines in this assay to confirm that the SK inhibitors are active in multiple intact cell systems. For example, human umbilical vein endothelial cells (HUVECs) are commonly used as a model of human vasculature. […] Similarly, the enzymatic activity of SK in bovine RECs, and its sensitivity to SK inhibitors were assessed. […] Each of inhibitors of SK (Compound I, Compound II and Compound V) was also active against the endogenous SK activity in the bovine RECs.

female DBA/1 mice = assay: Collagen-Induced Arthritis (CIA) model in mice; format: in vivo, mouse; conditions: 100 mg/kg orally, Day 12
[1] = system: VEGF-induced vascular permeability; assay: VEGF-induced vascular leakage (Miles assay) in nude mice; format: in vivo, mouse; conditions: FIG. 7B
sphingosine kinase (SK) = assay: Screening assay for inhibitors of SK; format: biochemical, human; conditions: library screen
From the text: An assay for screening for inhibitors of SK has been established (French et al., Cancer Res 63: 5962 (2003)). […] Representative active compounds from four chemotypes of SK inhibitors, designated herein as Compounds I-IV, are shown in FIG. 1.

[2] = system: female Swiss-Webster mice; conditions: mouse, in vivo
Protocol: (§1) The compounds are soluble to at least 15 mg/ml in 50% dimethylsulfoxide:50% phosphate-buffered saline (DMSO:PBS) for intraperitoneal (IP) administration or Polyethylene glycol-400 (PEG400) for oral dosing.

[3] = system: JC murine mammary adenocarcinoma; assay: JC mammary adenocarcinoma syngenic tumor model in Balb/C mice
Protocol: FIG. 12. […] Balb/c female mice were injected subcutaneously with JC cells suspended in PBS. […] Whole body weight and tumor volume measurement were performed for up to 18 days. *p<0.05. Inset: Averaged body weights of mice from each group during course of study.
FIG. 13. […] Balb/c female mice were injected s.c. with JC cells suspended in PBS.
We determined the antitumor activity of representative SK inhibitors in a syngenic mouse tumor model that uses a transformed murine mammary adenocarcinoma cell line (JC, ATCC Number CRL-2116) and Balb/C mice (Charles River) (Lee et al., Oncol Res 14: 49 (2003)). Animals were housed under 12 hour light/dark cycles, with food and water provided ad libitum. Tumor cells (1×10^6) were implanted subcutaneously, and tumor volume was calculated using the equation: (L×W^2)/2. Upon detection of tumors, mice were randomized into treatment groups.

[4] = system: diabetic Sprague-Dawley rats; assay: Retinal vascular permeability in streptozotocin-diabetic rats; format: in vivo, rat; conditions: 25 or 75 mg/kg IP, 5 days per week, Day 45 to Day 87; inner plexiform and outer nuclear layers
Protocol: FIG. 9. Effects of ABC 294640 on retinal vascular permeability in diabetic rats. From Day 45 through Day 87, Control (open bars) and Diabetic rats were treated with solvent (shaded bars) or ABC294640 at 25 mg/kg (horizontal-hatched bars) or 75 mg/kg (cross-hatched bars). On Day 87, retinal leakage in each animal was measured. Values represent the mean±sd for 3-5 rats per group.
Male Sprague-Dawley rats weighing 150-175 g were used. Diabetes was produced by intraperitoneal injection of streptozotocin (65 mg/kg in citrate buffer) after overnight fasting. Sham-injected non-diabetic animals were also carried as controls. Blood glucose was measured three days post-injection and animals with blood glucose over 250 mg/dL were used as diabetic rats for the study. Blood glucose levels and body weights were monitored weekly throughout the study. On Day 45, retinal vascular permeability was measured in a group of control and diabetic rats (Antonetti et al., Diabetes 47: 1953 (1998), Barber et al., Invest Ophthalmol Vis Sci 46: 2210 (2005)). […] Sections were dewaxed and viewed with an Olympus OM-2 fluorescence microscope fitted with a Sony CLD video camera. Fluorescence intensities of digital images were measured using Leica Confocal Software (Version 2.61, build 1538, LCS Lite, 2004). […]

Pharmacokinetics in mice = format: in vivo, mouse; conditions: for AUC(0-inf) / Cmax / Tmax / half-life: female, Swiss-Webster, mouse, whole blood, mice
Protocol: Mice were anesthetized and blood was removed by cardiac puncture at time points ranging from 1 minute to 8 hours. […] Control blood samples were spiked with known amounts of internal standard and analyte to identify compound-specific peaks and to develop standard curves for quantification. Pharmacokinetic parameters were calculated using the WINNONLIN analysis software package (Pharsight).

male Lewis rats = assay: Adjuvant-Induced Arthritis model in rats; format: in vivo, rat; conditions: Day 10
Protocol: FIG. 11. Effects of ABC294640 on disease progression in the adjuvant-induced arthritis model in rats. Male Lewis rats were injected subcutaneously with Mycobacterium butyricum, and symptoms of immune reactivity were present after 2 weeks. Responsive rats were randomized into treatment groups (n=8 per group), and received oral daily doses of: solvent alone (0.375% Tween-80); 100 mg/kg ABC294640; 35 mg/kg ABC294640; or 5 mg/kg ABC294640, or intraperitoneal injections of indomethacin (5 mg/kg) every other day. The severity of disease in each animal was quantified by measurement of the hind paw thickness. Panel A. Time course of hind paw arthritic response. Panel B. Final day (Day 10) hind paw thickness measurements. Panel C. Change in paw thickness of respective group versus non-arthritic rats (naive) at Day 10. *,p<0.05; ***, p<0.001 versus solvent alone group.
Adjuvant-induced arthritis is another widely used assay that recapitulates many features of human rheumatoid arthritis, and so is useful in the evaluation of new drug candidates. Age- and weight-matched male Lewis rats (150-170 g) were injected subcutaneously in the tail with 1 mg of Mycobacterium butyricum (Difco, killed dried) suspended in 0.1 ml of light mineral oil. Symptoms of immune reactivity were present after 2 weeks. Responsive rats were randomized into treatment groups, and received oral daily doses (1 ml) of: solvent alone (0.375% Tween-80); 100 mg/kg ABC294640; 35 mg/kg ABC294640; or 5 mg/kg ABC294640, or intraperitoneal injections of indomethacin (5 mg/kg) every other day as a positive control. The severity of disease in each animal was quantified by measurement of the hind paw thickness. As above, a reduction of 30% or greater was considered to be an indication of anti-inflammatory activity in this model.

physchem = conditions: aqueous with cosolvent or surfactant or cyclodextrin
Protocol: as §1

SMILES: O=C1C(=Cc2ccc(O)c(O)c2)Oc2ccccc21 [Compound V]
- endogenous SK activity in bovine RECs (endogenous SK; 25 μg/mL (approximately 80 μM)): active

SMILES: CCCCCCCCCCCCC/C=C/[C@@H](O)[C@H](CO)N(C)C [DMS, dimethylsphingosine, reference compound]
- endogenous SK activity in bovine RECs (endogenous SK; 20 μM, positive control): inhibition of SK

SMILES: O=C(NCc1ccncc1)C12CC3CC(C1)CC(c1ccc(Cl)cc1)(C3)C2 [ABC294640]
- reduction in clinical score versus vehicle (female DBA/1 mice; 6 days per week): 67%
- reduction in the increase in hind paw thickness versus vehicle (female DBA/1 mice; 6 days per week): 90%
- histologic damage of tibiotarsal joints (female DBA/1 mice): significantly reduced
- VEGF-promoted dye leakage into mouse skin ([1]; 75 mg/kg intraperitoneal): suppressed
- VEGF-promoted dye leakage into mouse skin ([1]; 100 mg/kg oral gavage): suppressed
- inhibition of SK (sphingosine kinase (SK)): inhibit SK
- nontoxic dose [2]: 1000 mg/kg
- dose with no immediate or delayed toxicity, acute ([2]; ip): at least 50 mg/kg
- dose without noticeable toxicity ([2]; po): at least 100 mg/kg
- inhibition of tumor growth ([3]; 100 mg/kg orally on odd days, PEG400): 69%
- therapeutic index (nontoxic dose/antitumor activity) ([3]; female, Balb/c, mouse, in vivo): greater than 30
- toxicity to the tumor-bearing mice ([3]; mouse, in vivo): without toxicity
- EC50 for inhibition of tumor growth ([3]; oral, odd days, dose-response, FIG. 13): approximately 35 mg/kg
- FITC-BSA leakage into the retina versus untreated diabetic rats [4]: substantially reduced
- blood levels versus IC50 for inhibition of SK activity (Pharmacokinetics in mice; during the entire study (up to 8 hours)): exceeded the IC50
- AUC(0-inf) (Pharmacokinetics in mice; IV 50 mg/kg): 56900 ng·h/mL and 137 µM·h
- Cmax (Pharmacokinetics in mice; IV 50 mg/kg): 31100 ng/mL and 74 µM
- Tmax (Pharmacokinetics in mice; IV 50 mg/kg): 0 h
- half-life (Pharmacokinetics in mice; IV 50 mg/kg): 1.4 h
- AUC(0-inf) (Pharmacokinetics in mice; Oral 50 mg/kg): 37500 ng·h/mL and 90.1 µM·h
- Cmax (Pharmacokinetics in mice; Oral 50 mg/kg): 8000 ng/mL and 19 µM
- Tmax (Pharmacokinetics in mice; Oral 50 mg/kg): 0.25 h
- half-life (Pharmacokinetics in mice; Oral 50 mg/kg): 4.5 h
- reduction in the arthritic response (hind paw thickness) (male Lewis rats; 5 mg/kg oral daily): 13%
- reduction in the arthritic response (hind paw thickness) (male Lewis rats; 35 mg/kg oral daily): 42%
- reduction in the arthritic response (hind paw thickness) (male Lewis rats; 100 mg/kg oral daily): 76%
- solubility (physchem): ≥ 15 mg/mL

SMILES: O=C(NN=Cc1c(O)ccc2ccccc12)c1cc(-c2ccc3ccccc3c2)n[nH]1 [Compound I]
- endogenous SK activity in bovine RECs (endogenous SK; 25 μg/mL (approximately 80 μM)): active
